In assay [1] the target is Lysine-specific demethylase 6B (Homo sapiens, UniProt O15054).
Description: Inhibition of recombinant JMJD3 (unknown origin) incubated for 15 mins prior to substrate addition by AlphaScreen method
Assay [2] has as its target T1, Lysine-specific demethylase 4C (Homo sapiens, UniProt Q9H3R0).
T1 sequence (Q9H3R0 whole entry): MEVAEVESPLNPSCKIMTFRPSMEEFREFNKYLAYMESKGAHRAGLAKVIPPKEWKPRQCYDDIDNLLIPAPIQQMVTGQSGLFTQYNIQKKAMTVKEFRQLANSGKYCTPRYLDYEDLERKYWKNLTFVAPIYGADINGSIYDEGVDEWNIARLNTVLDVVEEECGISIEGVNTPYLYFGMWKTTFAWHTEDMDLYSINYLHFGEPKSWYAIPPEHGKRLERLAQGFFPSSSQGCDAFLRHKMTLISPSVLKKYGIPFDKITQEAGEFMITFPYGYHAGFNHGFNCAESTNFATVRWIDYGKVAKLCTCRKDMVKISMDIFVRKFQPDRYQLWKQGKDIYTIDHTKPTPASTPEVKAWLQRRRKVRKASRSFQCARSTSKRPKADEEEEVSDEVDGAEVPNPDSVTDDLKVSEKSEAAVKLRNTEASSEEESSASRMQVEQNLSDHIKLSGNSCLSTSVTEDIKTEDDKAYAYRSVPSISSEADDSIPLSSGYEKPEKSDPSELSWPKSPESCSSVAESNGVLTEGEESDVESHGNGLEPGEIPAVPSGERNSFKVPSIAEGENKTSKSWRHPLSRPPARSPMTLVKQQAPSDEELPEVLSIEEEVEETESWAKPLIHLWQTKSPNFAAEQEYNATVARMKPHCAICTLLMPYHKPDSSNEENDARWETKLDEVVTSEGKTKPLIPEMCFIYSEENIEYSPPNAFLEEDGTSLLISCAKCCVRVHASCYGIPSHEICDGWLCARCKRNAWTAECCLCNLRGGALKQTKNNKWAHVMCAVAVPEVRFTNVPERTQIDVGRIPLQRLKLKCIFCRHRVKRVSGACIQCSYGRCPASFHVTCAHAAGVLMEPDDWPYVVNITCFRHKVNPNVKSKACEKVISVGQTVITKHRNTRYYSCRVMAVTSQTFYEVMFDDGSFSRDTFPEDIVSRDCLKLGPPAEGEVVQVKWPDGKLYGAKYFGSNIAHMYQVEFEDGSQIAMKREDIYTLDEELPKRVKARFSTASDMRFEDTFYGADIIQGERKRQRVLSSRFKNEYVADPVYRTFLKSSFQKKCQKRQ
Description: Inhibition of recombinant JMJD2C (unknown origin) incubated for 15 mins prior to substrate addition by AlphaScreen method

The target of assay [3] is T2, Lysine-specific demethylase 3A (Homo sapiens, UniProt Q9Y4C1).
T2 sequence (Q9Y4C1 whole entry): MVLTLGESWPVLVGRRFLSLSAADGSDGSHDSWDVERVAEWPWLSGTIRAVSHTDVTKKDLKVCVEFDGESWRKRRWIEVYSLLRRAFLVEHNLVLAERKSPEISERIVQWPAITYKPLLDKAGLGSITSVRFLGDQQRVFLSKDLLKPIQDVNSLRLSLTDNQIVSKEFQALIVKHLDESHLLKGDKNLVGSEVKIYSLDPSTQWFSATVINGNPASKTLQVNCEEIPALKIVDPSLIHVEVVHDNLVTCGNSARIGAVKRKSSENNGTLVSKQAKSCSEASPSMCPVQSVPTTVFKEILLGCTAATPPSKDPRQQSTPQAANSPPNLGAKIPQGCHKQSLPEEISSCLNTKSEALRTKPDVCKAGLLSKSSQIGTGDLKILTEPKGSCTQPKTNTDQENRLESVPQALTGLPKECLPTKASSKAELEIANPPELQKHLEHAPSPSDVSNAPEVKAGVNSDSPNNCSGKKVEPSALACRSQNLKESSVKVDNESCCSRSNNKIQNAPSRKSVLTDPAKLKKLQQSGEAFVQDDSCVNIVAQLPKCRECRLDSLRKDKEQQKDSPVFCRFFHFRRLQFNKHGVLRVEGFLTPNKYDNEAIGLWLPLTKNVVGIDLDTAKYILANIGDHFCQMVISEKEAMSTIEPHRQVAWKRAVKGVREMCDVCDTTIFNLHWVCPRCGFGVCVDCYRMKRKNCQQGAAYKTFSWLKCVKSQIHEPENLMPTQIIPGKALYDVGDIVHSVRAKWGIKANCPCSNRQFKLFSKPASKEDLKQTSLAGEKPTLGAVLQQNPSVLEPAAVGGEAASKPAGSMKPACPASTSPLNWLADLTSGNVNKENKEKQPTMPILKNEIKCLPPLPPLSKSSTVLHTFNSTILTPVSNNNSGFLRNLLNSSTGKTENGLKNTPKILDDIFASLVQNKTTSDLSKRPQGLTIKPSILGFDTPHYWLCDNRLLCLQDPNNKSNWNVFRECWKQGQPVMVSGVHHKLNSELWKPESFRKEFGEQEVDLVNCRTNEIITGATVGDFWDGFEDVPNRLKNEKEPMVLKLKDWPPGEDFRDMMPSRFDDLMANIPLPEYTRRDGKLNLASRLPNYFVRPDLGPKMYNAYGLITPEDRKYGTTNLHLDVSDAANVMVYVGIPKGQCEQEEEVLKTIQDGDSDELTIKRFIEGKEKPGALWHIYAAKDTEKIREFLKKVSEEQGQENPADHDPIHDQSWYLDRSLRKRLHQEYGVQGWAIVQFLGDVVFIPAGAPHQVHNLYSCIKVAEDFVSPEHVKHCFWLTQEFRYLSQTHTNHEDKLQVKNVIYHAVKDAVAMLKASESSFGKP
Description: Inhibition of recombinant JMJD1A (unknown origin) incubated for 15 mins prior to substrate addition by AlphaScreen method

Assay [4] deals with Lysine-specific histone demethylase 1A (Homo sapiens, UniProt O60341).
Description: Inhibition of human recombinant His-tagged LSD1 (171 to 836) assessed as hydrogen peroxide formation after 5 mins
The target in assay [5] is Lysine-specific demethylase 5C (Homo sapiens, UniProt P41229).
Sequence of Lysine-specific demethylase 5C (P41229 whole entry): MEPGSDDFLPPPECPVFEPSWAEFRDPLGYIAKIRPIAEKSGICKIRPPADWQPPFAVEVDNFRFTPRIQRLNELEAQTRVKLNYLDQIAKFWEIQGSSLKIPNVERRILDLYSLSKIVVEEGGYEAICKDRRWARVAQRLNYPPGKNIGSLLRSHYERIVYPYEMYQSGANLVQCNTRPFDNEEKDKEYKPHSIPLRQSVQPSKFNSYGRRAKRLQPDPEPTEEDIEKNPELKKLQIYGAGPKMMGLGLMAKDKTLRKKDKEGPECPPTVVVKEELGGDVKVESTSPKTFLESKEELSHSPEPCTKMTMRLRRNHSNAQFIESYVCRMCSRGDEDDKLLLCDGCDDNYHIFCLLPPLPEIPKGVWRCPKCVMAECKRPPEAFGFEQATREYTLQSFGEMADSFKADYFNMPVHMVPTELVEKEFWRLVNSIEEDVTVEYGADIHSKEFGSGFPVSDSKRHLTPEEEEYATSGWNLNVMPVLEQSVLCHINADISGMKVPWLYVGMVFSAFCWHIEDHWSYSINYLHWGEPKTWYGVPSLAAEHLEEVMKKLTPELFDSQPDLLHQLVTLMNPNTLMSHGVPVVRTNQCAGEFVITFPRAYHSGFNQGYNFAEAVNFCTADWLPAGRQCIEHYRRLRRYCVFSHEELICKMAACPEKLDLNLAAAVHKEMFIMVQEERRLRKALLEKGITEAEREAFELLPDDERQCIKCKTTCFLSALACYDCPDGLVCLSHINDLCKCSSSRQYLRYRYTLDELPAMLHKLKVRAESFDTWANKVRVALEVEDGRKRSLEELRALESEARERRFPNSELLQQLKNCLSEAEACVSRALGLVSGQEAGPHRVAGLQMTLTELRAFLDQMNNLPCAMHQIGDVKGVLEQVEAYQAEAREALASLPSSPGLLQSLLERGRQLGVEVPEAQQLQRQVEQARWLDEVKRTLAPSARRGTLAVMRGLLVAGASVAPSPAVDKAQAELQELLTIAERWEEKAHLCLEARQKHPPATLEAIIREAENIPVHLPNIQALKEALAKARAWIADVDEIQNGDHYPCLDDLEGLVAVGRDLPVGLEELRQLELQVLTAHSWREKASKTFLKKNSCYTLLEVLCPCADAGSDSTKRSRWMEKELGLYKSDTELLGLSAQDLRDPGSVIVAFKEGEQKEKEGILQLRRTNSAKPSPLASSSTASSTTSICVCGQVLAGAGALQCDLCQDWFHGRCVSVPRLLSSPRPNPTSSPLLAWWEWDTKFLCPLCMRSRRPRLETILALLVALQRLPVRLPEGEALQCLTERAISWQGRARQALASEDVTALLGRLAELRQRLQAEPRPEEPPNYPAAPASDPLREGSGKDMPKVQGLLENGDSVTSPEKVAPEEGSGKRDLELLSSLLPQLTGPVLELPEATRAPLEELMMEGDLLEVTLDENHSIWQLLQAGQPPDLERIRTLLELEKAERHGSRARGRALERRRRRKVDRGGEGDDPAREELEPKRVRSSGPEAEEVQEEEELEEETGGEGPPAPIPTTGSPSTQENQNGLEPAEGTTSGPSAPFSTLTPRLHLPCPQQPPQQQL
Description: Inhibition of recombinant JARID1C (unknown origin) incubated for 15 mins prior to substrate addition by AlphaScreen method

These results are taken from ChEMBL document CHEMBL3108715, “Pan-histone demethylase inhibitors simultaneously targeting Jumonji C and lysine-specific demethylases display high anticancer activities” (J Med Chem, 2014).

A value given as a limit tells only on which side of the number the result lay.

Sequence of Lysine-specific demethylase 6B (O15054 whole entry): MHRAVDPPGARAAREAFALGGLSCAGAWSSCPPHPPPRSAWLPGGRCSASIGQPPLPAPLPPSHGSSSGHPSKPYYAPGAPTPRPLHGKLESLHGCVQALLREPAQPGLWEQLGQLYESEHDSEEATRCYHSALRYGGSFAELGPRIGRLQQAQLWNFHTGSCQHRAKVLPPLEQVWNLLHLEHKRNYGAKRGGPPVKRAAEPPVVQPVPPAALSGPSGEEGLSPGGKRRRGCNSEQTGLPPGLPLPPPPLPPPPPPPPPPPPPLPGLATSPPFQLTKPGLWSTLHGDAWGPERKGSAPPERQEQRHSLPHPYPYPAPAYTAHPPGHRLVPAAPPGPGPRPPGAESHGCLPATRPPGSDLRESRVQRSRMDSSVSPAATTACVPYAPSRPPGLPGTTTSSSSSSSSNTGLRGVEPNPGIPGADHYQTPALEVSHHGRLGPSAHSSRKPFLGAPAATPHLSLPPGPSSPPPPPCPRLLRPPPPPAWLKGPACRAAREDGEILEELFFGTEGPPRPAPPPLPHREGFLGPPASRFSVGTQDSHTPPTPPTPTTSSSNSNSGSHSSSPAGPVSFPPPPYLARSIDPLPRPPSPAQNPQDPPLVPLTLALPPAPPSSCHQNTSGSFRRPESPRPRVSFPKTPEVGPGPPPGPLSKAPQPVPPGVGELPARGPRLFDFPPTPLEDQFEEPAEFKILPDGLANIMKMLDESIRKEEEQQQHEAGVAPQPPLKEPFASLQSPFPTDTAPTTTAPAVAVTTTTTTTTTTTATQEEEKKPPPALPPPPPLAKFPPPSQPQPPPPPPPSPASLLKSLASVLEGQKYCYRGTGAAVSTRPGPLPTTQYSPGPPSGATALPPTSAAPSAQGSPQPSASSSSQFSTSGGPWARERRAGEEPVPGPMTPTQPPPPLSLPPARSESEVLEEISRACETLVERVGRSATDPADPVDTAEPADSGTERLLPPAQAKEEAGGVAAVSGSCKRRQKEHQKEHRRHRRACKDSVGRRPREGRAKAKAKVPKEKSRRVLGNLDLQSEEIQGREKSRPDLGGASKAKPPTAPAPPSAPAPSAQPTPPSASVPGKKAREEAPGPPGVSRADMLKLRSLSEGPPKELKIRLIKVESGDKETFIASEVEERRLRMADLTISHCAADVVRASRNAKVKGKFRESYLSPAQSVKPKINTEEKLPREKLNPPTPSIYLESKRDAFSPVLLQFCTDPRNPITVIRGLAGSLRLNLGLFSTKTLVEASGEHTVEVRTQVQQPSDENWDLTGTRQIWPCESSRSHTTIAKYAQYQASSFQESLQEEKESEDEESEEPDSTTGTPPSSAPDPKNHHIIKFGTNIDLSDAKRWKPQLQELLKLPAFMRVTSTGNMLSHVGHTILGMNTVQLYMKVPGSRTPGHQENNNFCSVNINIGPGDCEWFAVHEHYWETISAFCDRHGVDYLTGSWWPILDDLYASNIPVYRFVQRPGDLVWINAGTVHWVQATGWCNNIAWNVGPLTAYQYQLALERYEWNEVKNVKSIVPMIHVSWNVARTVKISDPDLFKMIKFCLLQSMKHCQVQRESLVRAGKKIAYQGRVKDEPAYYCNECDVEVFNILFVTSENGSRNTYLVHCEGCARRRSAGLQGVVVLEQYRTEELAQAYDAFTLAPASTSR

Take `N[C@H]1C[C@@H]1c1ccc(NC(=O)CCCCNC(=O)c2ccc(O)c3ncccc23)cc1` (relative stereo): the IC50 (in general, the midpoint of a concentration-inhibition curve) in assay [1] worked out at 14 µM; in assay [2] it was 3.1 µM; in assay [3] it was 9.7 µM; in assay [4], 1.6 µM; in assay [5] it was 21 µM.
As to `COC(=O)c1ccnc(-c2cc(C(=O)O)ccn2)c1`, the IC50 in assay [1] is 11.2 µM; in assay [2], 3.5 µM; in assay [3], 1.1 µM; in assay [4], greater than 100 µM; in assay [5], 0.03 µM.
For the compound `COC(=O)c1ccnc(-c2cc(C(=O)Nc3ccc([C@@H]4C[C@H]4N)cc3)ccn2)c1.Cl` (relative stereo), the IC50 in assay [1] was 76 µM; in assay [2] it was 2.7 µM; in assay [3] it was 37 µM; in assay [4] it was less than 1 µM; in assay [5] it was 8.5 µM.
For the compound `Cl.N[C@H]1C[C@@H]1c1ccc(NC(=O)CCCCCNC(=O)c2ccc(O)c3ncccc23)cc1` (relative stereo), the concentration for half-maximal inhibition (IC50) in assay [1] is 16 µM; in assay [2] it was 2.5 µM; in assay [3], 9.1 µM; in assay [4] it was 1 µM; in assay [5], 37 µM.
The like results for `N[C@H]1C[C@@H]1c1ccc(NC(=O)CCCNC(=O)c2ccc(O)c3ncccc23)cc1` (relative stereo) were, in that order, 18 µM, 4.5 µM, 12 µM, less than 1 µM and 35 µM.
For the compound `Cl.N[C@@H]1C[C@H]1c1ccc(NC(=O)c2ccc(O)c3ncccc23)cc1` (relative stereo), the concentration for half-maximal inhibition (IC50) was 27 µM in assay [1]; 1.2 µM in assay [2]; 31 µM in assay [3]; less than 1 µM in assay [4]; 26 µM in assay [5].
Consider `N[C@@H]1C[C@H]1c1ccc(NC(=O)c2ccnc(-c3cc(C(=O)O)ccn3)c2)cc1` (relative stereo), for which the half-inhibitory concentration (IC50) was determined as 2.7 µM in assay [1]; 0.07 µM in assay [2]; 0.14 µM in assay [3]; 2.2 µM in assay [4]; 0.19 µM in assay [5].
